{"source": "patent US7943551B2", "about": "“3-cyclopropyl-4-(3-thiobenzoyl) pyrazoles and their use as herbicides” (Bayer Cropscience AG, priority 2007, dated 2011)", "type_in_all_cases": "in vivo", "key": {"Matricaria inodora [1]": {"test_system": "Matricaria inodora", "assay": "Post-emergence herbicidal action", "details": "Tripleurospermum inodorum, 80 g of a.i./ha, read-out: Herbicidal activity in % against MATIN", "procedure": "(§1) Seeds of mono- and dicotyledonous harmful plants are placed in sandy loam in cardboard pots, covered with soil and grown in the greenhouse under good growth conditions. Two to three weeks after sowing, the test plants are treated at the three-leaf stage. The compounds according to the invention, which are formulated as wettable powders or as emulsion concentrates, are sprayed at an application rate of 600 to 800 l of water/ha (converted) in a dosage of 80 grams per hectare onto the surface of the green plant parts. The visual scoring of the damage to the harmful plants is carried out 3-4 weeks after the treatment. Here, the compounds of Nos. 1-39, 1-40, 1-1382 and 1-2091 show an activity of at least 90% against Echinochloa crus galli. The compounds of Nos. 1-3, 1-44 and 1-2091 shown an activity of at least 90% against Abutilon theophrasti. The compounds of Nos. 1-39, 1-40 and 1-1382 show an activity of at least 90% against Veronica persica. The compounds of Nos. 1-3, 1-38, 1-39, 1-1406 and 1-1407 show an activity of at least 90% against Stellaria media.\n(§2) The comparative tests of Tables 1 to 24 below show the superiority of the compounds according to the invention over the compounds known from the prior art.\n(§3) • ABUTH Abutilon theophrasti ALOMY Alopecurus myosuroides • AMARE Amaranthus retroflexus AVEFA Avena fatua • CHEAL Chenopodium album ECHCG Echinochloa crus galli • GALAP Galium aparine LOLMU Lolium multiflorum • MATIN Matricaria inodora PHBPU Pharbitis purpureum • POLCO Fallopia convolvulus STEME Stellaria media • VERPE Veronica persica VIOTR Viola tricolor • XANST Xanthium strumarium Crop Plants • GLXMA Glycine max (soybeans) TRZAS Triticum aestivum (wheat) • ZEAMX Zea mays (corn)"}, "Pharbitis purpureum": {"test_system": "Pharbitis purpureum", "assay": "Post-emergence herbicidal action", "details": "80 g of a.i./ha", "procedure": "as §1, §2, §3"}, "Stellaria media": {"test_system": "Stellaria media", "assay": "Post-emergence herbicidal action", "details": "80 g of a.i./ha, visual scoring 3-4 weeks after treatment; for pest or weed control at 80 g/ha: Stellaria media, read-out: Herbicidal activity in % against STEME", "procedure": "as §1, §2, §3"}, "Echinochloa crus galli": {"test_system": "Echinochloa crus galli", "assay": "Post-emergence herbicidal action", "details": "read-out: Herbicidal activity in % against ECHCG; for pest or weed control at 80 g/ha: 80 g of a.i./ha, visual scoring 3-4 weeks after treatment", "procedure": "as §1, §2, §3"}, "Matricaria inodora [2]": {"test_system": "Matricaria inodora", "assay": "Pre-emergence herbicidal action", "details": "Tripleurospermum inodorum, 320 g of a.i./ha, read-out: Herbicidal activity in % against MATIN", "description": "(§4) Seeds or rhizome pieces of mono- and dicotyledonous harmful plants are placed in sandy loam in pots of a diameter of 9 to 13 cm and covered with soil. The herbicides, formulated as emulsifiable concentrates or dusts, are applied to the surface of the covering soil in the form of aqueous dispersions or suspensions or emulsions at an application rate of 300 to 800 l of water/ha (converted), at a dosage of 320 grams per hectare. For further cultivation of the plants, the pots are then kept in a greenhouse under optimum conditions. The visual scoring of the damage to the harmful plants is carried out 3-4 weeks after the treatment. Here, the compounds of Nos. 1-3, 1-15, 1-44 and 1-1407 show an activity of at least 90% against Echinochloa crus galli. The compounds of Nos. 1-15, 1-45, 1-1407 and 1-1419 show an activity of at least 90% against Abutilon theophrasti. The compounds of Nos. 1-3, 1-45, 1-1406 and 1-1418 show an activity of at least 90% against Amaranthus retroflexus. The compounds of Nos. 1-44, 1-1406, 1-1407 and 1-1419 show an activity of at least 90% against Stellaria media.\nas §2, §3"}, "Abutilon theophrasti [3]": {"test_system": "Abutilon theophrasti", "assay": "Pre-emergence herbicidal action", "details": "320 g of a.i./ha, visual scoring 3-4 weeks after treatment", "description": "as §4, §2, §3"}, "Xanthium strumarium": {"test_system": "Xanthium strumarium", "assay": "Post-emergence herbicidal action", "details": "read-out: Herbicidal activity in % against XANST; for pest or weed control at 80 g/ha: 80 g of a.i./ha", "procedure": "as §1, §2, §3"}, "Abutilon theophrasti [4]": {"test_system": "Abutilon theophrasti", "assay": "Post-emergence herbicidal action", "details": "Abutilon theophrasti, read-out: Herbicidal activity in % against ABUTH; for pest or weed control at 20 g/ha: 20 g of a.i./ha; for pest or weed control at 80 g/ha: 80 g of a.i./ha, visual scoring 3-4 weeks after treatment", "procedure": "as §1, with “The compounds according to the invention, which are formulated as wettable powders or as emulsion concentrates, are sprayed at an application rate of 600 to 800 l of water/ha (converted) in a dosage of 80 grams per hectare onto the surface of the green plant parts.” left out\nas §2, §3"}, "Viola tricolor": {"test_system": "Viola tricolor", "assay": "Post-emergence herbicidal action", "details": "80 g of a.i./ha, read-out: Herbicidal activity in % against VIOTR", "procedure": "as §1, §2, §3"}, "Veronica persica": {"test_system": "Veronica persica", "assay": "Post-emergence herbicidal action", "details": "80 g of a.i./ha, visual scoring 3-4 weeks after treatment, read-out: Herbicidal activity in % against VERPE", "procedure": "as §1, §2, §3"}}}
{"smiles": "Cc1c(C(=O)c2c(C3CC3)nn(C)c2O)ccc(Cl)c1SCC1CC1", "note": "[drawing 39]", "values": [{"measurement": "pest or weed control at 80 g/ha", "setting": "Matricaria inodora [1]", "value": 70, "unit": "%"}, {"measurement": "Herbicidal activity in % against PHBPU", "setting": "Pharbitis purpureum", "value": 70, "unit": "%"}, {"measurement": "Herbicidal activity in % against STEME", "setting": "Stellaria media", "value": 100, "unit": "%"}, {"measurement": "pest or weed control at 80 g/ha", "setting": "Echinochloa crus galli", "value": 90, "unit": "%"}]}
{"smiles": "COCCSc1c(C(F)(F)F)ccc(C(=O)c2c(C3CC3)nn(C)c2O)c1C", "note": "[drawing 19]", "values": [{"measurement": "pest or weed control at 320 g/ha", "setting": "Matricaria inodora [2]", "value": 60, "unit": "%"}, {"measurement": "Herbicidal activity in % against ABUTH", "setting": "Abutilon theophrasti [3]", "value": 100, "unit": "%"}]}
{"smiles": "CSc1c(C(F)(F)F)ccc(C(=O)c2c(C3CC3)nn(C)c2O)c1C", "note": "[drawing 20]", "values": [{"measurement": "pest or weed control at 320 g/ha", "setting": "Matricaria inodora [2]", "value": 0, "unit": "%"}, {"measurement": "Herbicidal activity in % against ABUTH", "setting": "Abutilon theophrasti [3]", "value": 50, "unit": "%"}]}
{"smiles": "CCSc1c(Cl)ccc(C(=O)c2c(C3CC3)nn(C)c2O)c1Cl", "note": "[reference compound]", "values": [{"measurement": "pest or weed control at 20 g/ha", "setting": "Xanthium strumarium; 20 g of a.i./ha", "value": 50, "unit": "%"}, {"measurement": "pest or weed control at 20 g/ha", "setting": "Abutilon theophrasti [4]", "value": 40, "unit": "%"}]}
{"smiles": "CSc1c(S(C)(=O)=O)ccc(C(=O)c2c(C3CC3)nn(C)c2O)c1C", "note": "[drawing 30, reference compound]", "values": [{"measurement": "pest or weed control at 80 g/ha", "setting": "Xanthium strumarium", "value": 60, "unit": "%"}, {"measurement": "pest or weed control at 80 g/ha", "setting": "Viola tricolor", "value": 70, "unit": "%"}, {"measurement": "pest or weed control at 80 g/ha", "setting": "Echinochloa crus galli", "value": 80, "unit": "%"}]}
{"smiles": "CCSc1c(S(C)(=O)=O)ccc(C(=O)c2c(C3CC3)nn(C)c2O)c1C", "note": "[reference compound]", "values": [{"measurement": "pest or weed control at 80 g/ha", "setting": "Xanthium strumarium", "value": 80, "unit": "%"}, {"measurement": "pest or weed control at 80 g/ha", "setting": "Viola tricolor", "value": 70, "unit": "%"}, {"measurement": "pest or weed control at 80 g/ha", "setting": "Echinochloa crus galli", "value": 80, "unit": "%"}]}
{"smiles": "CCSc1c(C(F)(F)F)ccc(C(=O)c2c(C3CC3)nn(C)c2O)c1C", "values": [{"measurement": "pest or weed control at 320 g/ha", "setting": "Matricaria inodora [2]", "value": 0, "unit": "%"}, {"measurement": "Herbicidal activity in % against ABUTH", "setting": "Abutilon theophrasti [3]", "value": 90, "unit": "%"}]}
{"smiles": "COCCSc1c(C(F)(F)F)ccc(C(=O)c2c(C3CC3)nn(C)c2O)c1C", "note": "[No. 1-2091, 3-cyclopropyl-5-hydroxy-4-(3-(2-methoxyethyl)thio-2-methyl-4-trifluoromethylbenzoyl)-1-methylpyrazole]", "values": [{"measurement": "pest or weed control at 80 g/ha", "setting": "Echinochloa crus galli", "value": "≥ 90", "unit": "%"}, {"measurement": "pest or weed control at 80 g/ha", "setting": "Abutilon theophrasti [4]", "value": "≥ 90", "unit": "%"}]}
{"smiles": "Cc1c(C(=O)c2c(C3CC3)nn(C)c2O)ccc(Cl)c1SCC1CC1", "note": "[No. 1-1406, 4-(4-chloro-3′-cyclopropylmethylthio-2-methylbenzoyl)-3-cyclopropyl-5-hydroxy-1-methylpyrazole]", "values": [{"measurement": "pest or weed control at 80 g/ha", "setting": "Stellaria media", "value": "≥ 90", "unit": "%"}]}
{"smiles": "CSc1c(S(C)(=O)=O)ccc(C(=O)c2c(C3CC3)nn(C)c2O)c1Cl", "note": "[drawing 52, reference compound]", "values": [{"measurement": "Herbicidal activity in % against PHBPU", "setting": "Pharbitis purpureum", "value": 50, "unit": "%"}, {"measurement": "pest or weed control at 80 g/ha", "setting": "Stellaria media", "value": 80, "unit": "%"}, {"measurement": "pest or weed control at 80 g/ha", "setting": "Veronica persica", "value": 80, "unit": "%"}]}
{"smiles": "COCCSc1c(C(F)(F)F)ccc(C(=O)c2c(C3CC3)nn(C)c2O)c1C", "note": "[drawing 45]", "values": [{"measurement": "pest or weed control at 20 g/ha", "setting": "Echinochloa crus galli; 20 g of a.i./ha", "value": 80, "unit": "%"}, {"measurement": "pest or weed control at 20 g/ha", "setting": "Abutilon theophrasti [4]", "value": 80, "unit": "%"}]}
{"smiles": "CCSc1c(S(C)(=O)=O)ccc(C(=O)c2c(C3CC3)nn(C)c2O)c1Cl", "note": "[drawing 48, reference compound]", "values": [{"measurement": "pest or weed control at 80 g/ha", "setting": "Matricaria inodora [1]", "value": 0, "unit": "%"}, {"measurement": "pest or weed control at 80 g/ha", "setting": "Viola tricolor", "value": 60, "unit": "%"}, {"measurement": "pest or weed control at 80 g/ha", "setting": "Abutilon theophrasti [4]", "value": 80, "unit": "%"}]}
{"smiles": "COCCSc1c(Cl)ccc(C(=O)c2c(C3CC3)nn(C)c2O)c1C", "note": "[drawing 41]", "values": [{"measurement": "pest or weed control at 80 g/ha", "setting": "Matricaria inodora [1]", "value": 80, "unit": "%"}, {"measurement": "Herbicidal activity in % against PHBPU", "setting": "Pharbitis purpureum", "value": 80, "unit": "%"}, {"measurement": "pest or weed control at 80 g/ha", "setting": "Stellaria media", "value": 100, "unit": "%"}, {"measurement": "pest or weed control at 80 g/ha", "setting": "Echinochloa crus galli", "value": 90, "unit": "%"}]}
